Laboratory results reported in paper PMC4754685 (Scientific Reports, 2016).

Target: T1, Mlp37p (periplasmic fragment of Mlp37) (Vibrio cholerae, UniProt A0A0H3AES3)
T1 construct: gene VC0395_0316
Assay: biochemical

T1 sequence (A0A0H3AES3 58-303 limits assumed): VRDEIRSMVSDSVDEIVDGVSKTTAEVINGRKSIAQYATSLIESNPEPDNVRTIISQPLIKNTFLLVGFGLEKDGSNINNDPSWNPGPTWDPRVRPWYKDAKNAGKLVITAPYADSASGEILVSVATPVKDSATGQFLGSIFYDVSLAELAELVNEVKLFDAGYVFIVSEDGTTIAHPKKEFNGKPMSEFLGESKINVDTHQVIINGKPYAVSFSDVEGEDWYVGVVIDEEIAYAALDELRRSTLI

Compound	Kd [µM]
C[C@H](N)C(=O)O [L-alanine]	2.7
N=C(N)NCCC[C@H](N)C(=O)O [L-arginine]	5.6
N[C@@H](CO)C(=O)O [L-serine]	3.6
NCCS(=O)(=O)O [taurine, 2-aminoethanesulfonic acid]	3.2
